Drawing on patent publication US8691865B2 (AbbVie Inc., priority 2008, dated 2014), this text covers IC50 for 22 compounds.

The target of one test is human Cav2.2 (Homo sapiens, UniProt Q00975). Kind of test: Assessment of calcium channel activity using FLIPR (Ca2+ influx in IMR32 cells). Format: cell-based.
Chain of human Cav2.2 (Q00975 whole entry): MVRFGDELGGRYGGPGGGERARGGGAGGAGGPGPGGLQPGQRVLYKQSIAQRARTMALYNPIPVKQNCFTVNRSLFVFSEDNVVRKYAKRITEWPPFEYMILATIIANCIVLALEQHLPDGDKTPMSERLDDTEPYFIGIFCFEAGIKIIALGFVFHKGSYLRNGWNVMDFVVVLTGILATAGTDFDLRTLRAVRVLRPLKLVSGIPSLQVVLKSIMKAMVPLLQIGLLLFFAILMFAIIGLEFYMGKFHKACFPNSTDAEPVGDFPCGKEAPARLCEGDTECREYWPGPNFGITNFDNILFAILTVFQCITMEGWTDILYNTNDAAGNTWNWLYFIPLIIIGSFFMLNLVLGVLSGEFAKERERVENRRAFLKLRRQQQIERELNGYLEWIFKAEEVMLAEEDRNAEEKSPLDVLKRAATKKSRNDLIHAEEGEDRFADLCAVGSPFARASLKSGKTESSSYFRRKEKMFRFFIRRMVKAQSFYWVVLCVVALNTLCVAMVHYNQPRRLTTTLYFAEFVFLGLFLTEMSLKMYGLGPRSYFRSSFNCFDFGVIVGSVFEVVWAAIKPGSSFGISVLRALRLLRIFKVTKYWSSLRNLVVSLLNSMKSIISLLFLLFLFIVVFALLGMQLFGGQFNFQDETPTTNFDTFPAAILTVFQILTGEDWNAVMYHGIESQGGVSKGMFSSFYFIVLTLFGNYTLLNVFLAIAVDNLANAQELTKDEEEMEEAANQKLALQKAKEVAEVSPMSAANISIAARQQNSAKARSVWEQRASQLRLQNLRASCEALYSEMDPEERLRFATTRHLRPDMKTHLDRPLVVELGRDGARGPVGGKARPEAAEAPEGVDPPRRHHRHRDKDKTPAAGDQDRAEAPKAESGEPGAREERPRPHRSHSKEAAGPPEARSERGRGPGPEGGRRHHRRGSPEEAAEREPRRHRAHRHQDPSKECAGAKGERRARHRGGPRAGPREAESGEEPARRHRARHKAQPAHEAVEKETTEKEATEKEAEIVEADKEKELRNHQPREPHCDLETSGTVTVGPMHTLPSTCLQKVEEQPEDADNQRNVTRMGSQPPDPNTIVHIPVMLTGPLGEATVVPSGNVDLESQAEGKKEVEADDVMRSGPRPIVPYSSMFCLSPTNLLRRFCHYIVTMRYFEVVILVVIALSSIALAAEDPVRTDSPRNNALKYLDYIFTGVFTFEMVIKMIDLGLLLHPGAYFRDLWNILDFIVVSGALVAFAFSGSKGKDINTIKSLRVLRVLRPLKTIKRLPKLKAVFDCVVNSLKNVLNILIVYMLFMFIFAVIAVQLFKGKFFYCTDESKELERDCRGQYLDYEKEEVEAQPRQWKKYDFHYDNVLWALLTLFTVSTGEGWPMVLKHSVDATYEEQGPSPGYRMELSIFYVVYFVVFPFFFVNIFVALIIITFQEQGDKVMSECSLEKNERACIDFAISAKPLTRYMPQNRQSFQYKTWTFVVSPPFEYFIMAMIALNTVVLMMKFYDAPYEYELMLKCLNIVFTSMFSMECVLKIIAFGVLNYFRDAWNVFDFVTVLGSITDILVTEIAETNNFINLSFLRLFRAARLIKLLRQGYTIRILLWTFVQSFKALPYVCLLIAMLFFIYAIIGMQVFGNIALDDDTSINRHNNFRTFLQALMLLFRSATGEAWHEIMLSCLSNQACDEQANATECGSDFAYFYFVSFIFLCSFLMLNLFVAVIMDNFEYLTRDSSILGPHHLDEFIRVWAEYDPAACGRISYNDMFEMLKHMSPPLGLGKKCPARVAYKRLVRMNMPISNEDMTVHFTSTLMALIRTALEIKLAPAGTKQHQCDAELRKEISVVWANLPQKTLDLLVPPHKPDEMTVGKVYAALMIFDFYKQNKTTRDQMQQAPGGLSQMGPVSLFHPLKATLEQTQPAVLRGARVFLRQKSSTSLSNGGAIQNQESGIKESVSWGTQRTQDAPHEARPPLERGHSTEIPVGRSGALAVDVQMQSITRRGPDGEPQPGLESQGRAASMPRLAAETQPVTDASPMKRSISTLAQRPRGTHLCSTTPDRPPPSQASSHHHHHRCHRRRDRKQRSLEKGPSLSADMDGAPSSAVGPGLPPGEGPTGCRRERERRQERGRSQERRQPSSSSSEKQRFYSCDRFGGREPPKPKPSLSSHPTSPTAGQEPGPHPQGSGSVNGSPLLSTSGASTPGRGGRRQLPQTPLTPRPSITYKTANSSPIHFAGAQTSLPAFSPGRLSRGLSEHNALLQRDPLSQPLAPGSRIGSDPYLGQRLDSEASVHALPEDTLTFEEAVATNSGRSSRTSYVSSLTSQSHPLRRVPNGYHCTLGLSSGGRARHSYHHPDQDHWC
Chain of human Cav2.2 (P54289 25-956 partner limits assumed): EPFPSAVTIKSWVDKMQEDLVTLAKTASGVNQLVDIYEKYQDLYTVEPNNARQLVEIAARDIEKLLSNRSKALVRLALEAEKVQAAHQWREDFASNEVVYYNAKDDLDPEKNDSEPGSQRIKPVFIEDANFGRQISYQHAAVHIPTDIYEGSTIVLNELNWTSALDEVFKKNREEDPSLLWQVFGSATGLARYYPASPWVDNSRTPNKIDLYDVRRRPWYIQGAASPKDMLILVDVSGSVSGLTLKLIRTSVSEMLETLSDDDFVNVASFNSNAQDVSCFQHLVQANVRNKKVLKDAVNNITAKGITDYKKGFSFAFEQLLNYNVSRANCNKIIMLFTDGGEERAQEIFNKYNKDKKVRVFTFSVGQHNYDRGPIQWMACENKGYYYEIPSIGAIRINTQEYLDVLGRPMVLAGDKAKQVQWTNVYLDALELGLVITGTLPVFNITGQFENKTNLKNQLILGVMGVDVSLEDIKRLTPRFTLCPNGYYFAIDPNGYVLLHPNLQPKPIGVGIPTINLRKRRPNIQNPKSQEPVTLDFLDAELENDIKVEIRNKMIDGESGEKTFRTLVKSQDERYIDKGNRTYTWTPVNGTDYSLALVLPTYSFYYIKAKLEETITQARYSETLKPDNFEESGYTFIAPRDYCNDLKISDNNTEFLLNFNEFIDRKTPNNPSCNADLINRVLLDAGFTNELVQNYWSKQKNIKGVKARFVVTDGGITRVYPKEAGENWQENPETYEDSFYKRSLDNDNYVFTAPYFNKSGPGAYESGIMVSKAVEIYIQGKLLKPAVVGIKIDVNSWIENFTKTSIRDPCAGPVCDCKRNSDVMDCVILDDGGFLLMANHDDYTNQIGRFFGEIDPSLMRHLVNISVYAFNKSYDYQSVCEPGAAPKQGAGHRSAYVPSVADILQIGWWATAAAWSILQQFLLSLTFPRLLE
Chain of human Cav2.2 (P54289 957-1103 partner limits assumed): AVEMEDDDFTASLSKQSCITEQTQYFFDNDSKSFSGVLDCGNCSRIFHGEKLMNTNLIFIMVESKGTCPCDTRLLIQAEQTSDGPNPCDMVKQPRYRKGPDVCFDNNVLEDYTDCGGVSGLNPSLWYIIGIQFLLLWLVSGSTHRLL
Chain of human Cav2.2 (P54284 whole entry partner): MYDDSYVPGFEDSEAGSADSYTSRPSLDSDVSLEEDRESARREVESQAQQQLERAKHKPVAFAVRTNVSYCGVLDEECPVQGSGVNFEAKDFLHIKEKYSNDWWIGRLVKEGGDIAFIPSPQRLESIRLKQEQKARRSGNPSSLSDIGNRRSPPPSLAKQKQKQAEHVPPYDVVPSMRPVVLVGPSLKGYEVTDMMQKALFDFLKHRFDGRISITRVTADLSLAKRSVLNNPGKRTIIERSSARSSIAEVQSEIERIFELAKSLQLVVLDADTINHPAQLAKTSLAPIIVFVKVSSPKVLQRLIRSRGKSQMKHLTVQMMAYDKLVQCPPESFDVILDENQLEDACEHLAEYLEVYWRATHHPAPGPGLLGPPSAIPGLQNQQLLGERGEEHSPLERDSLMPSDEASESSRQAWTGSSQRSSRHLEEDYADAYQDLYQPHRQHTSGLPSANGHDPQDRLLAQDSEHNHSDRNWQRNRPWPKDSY
Settings: not given
Put shortly: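 Human neuroblastoma IMR32 cells were seeded at 1−1.2×10^5 cells/well and cultured 48 h at 37 °C before FLIPR calcium influx measurement. Percent inhibition at each concentration was calculated against the no-inhibitor signal, and IC50 came from sigmoidal dose-response fits.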
As usually defined, the IC50 is the midpoint of a concentration-inhibition curve. In the case of `CC(C)N[C@H]1CC[C@@H]2CN(c3cccc(C(F)(F)F)n3)C[C@@H]21` [Example 609, (3aR,4S,6aS)-N-isopropyl-2-[6-(trifluoromethyl)pyridin-2-yl]octahydrocyclopenta[c]pyrrol-4-amine], the IC50 worked out at 1.45 µM.
Turning to `CN[C@@H](CC(C)C)C(=O)N[C@H]1CC[C@@H]2CN(c3ccc(F)c(OC(F)(F)F)c3)C[C@@H]21` [Example 772, N-{(3aR,4S,6aS)-2-[4-fluoro-3-(trifluoromethoxy)phenyl]octahydrocyclopenta[c]pyrrol-4-yl}-N^2-methyl-L-leucinamide], the IC50 stood at 1.08 µM.
For the compound `CC(C)C[C@H](NC(=O)OC(C)(C)C)C(=O)N[C@@H]1CC[C@@H]2CN(Cc3cccc(C(F)(F)F)c3)C[C@@H]21` (stereo in doubt) [Example 137, N^2-(tert-butyloxycarbonyl)-N^1-{(3aR*,4R*,6aS*)-2-[3-(trifluoromethyl)benzyl]octahydrocyclopenta[c]pyrrol-4-yl}-L-leucinamide], the IC50 came to 0.65 µM.
For `CN[C@H](C(=O)N[C@@H]1CC[C@H]2CN(Cc3ccc(F)cc3)C[C@H]21)C(C)C` [Example 369, N^1-[(3aS,4R,6aR)-2-(4-fluorobenzyl)octahydrocyclopenta[c]pyrrol-4-yl]-N^2-methyl-L-valinamide], the IC50 was over 16.4 µM.
On the same count and under the same terms, the same measure for `O=C(Nc1ccc(F)c(Cl)c1)N[C@H]1CC[C@@H]2CN(c3cccc(C(F)(F)F)n3)C[C@@H]21` [Example 714, 1-(3-chloro-4-fluorophenyl)-3-{(3aR,4S,6aS)-2-[6-(trifluoromethyl)pyridin-2-yl]octahydrocyclopenta[c]pyrrol-4-yl}urea]: 2.8 µM; for `CC(C)C[C@@H](C(=O)N[C@@H]1CC[C@H]2CN(Cc3ccccc3)C[C@H]21)N1CCOCC1` [Example 249, (2S)-N-[(3aS,4R,6aR)-2-benzyloctahydrocyclopenta[c]pyrrol-4-yl]-4-methyl-2-morpholin-4-ylpentanamide]: over 30 µM.
With `CN[C@@H](CC(C)C)C(=O)N[C@H]1CC[C@@H]2CN(c3nnc(C(F)(F)F)s3)C[C@@H]21` [Example 734, N^2-methyl-N-{(3aR,4S,6aS)-2-[5-(trifluoromethyl)-1,3,4-thiadiazol-2-yl]octahydrocyclopenta[c]pyrrol-4-yl}-L-leucinamide], the IC50 worked out at 26.4 µM.
Turning to `Cc1ccc(C(=O)N[C@H]2CC[C@@H]3CN(c4cccc(C(F)(F)F)n4)C[C@@H]32)o1` [Example 576, 5-methyl-N-{(3aR,4S,6aS)-2-[6-(trifluoromethyl)pyridin-2-yl]octahydrocyclopenta[c]pyrrol-4-yl}-2-furamide], the IC50 is 1.08 µM.
`CN[C@@H](CC(C)C)C(=O)N[C@H]1CC[C@@H]2CN(c3cnccc3C(F)(F)F)C[C@@H]21` [Example 765, N^2-methyl-N-{(3aR,4S,6aS)-2-[4-(trifluoromethyl)pyridin-3-yl]octahydrocyclopenta[c]pyrrol-4-yl}-L-leucinamide]: the IC50 was 2.59 µM.
`CN[C@H](CC(C)C)C(=O)N[C@H]1CC[C@@H]2CN(c3ccc(C(F)(F)F)cc3)C[C@@H]21` [Example 760, N^2-methyl-N-{(3aR,4S,6aS)-2-[4-(trifluoromethyl)phenyl]octahydrocyclopenta[c]pyrrol-4-yl}-D-leucinamide]: the IC50 came to 2.32 µM.
On to `CN[C@@H](CC(C)C)C(=O)N[C@H]1CC[C@@H]2CN(c3ccc(OC(F)(F)F)cc3F)C[C@@H]21` [Example 774, N-{(3aR,4S,6aS)-2-[2-fluoro-4-(trifluoromethoxy)phenyl]octahydrocyclopenta[c]pyrrol-4-yl}-N^2-methyl-L-leucinamide], for which the IC50 amounted to 1.15 µM.
As for `CN[C@@H](CC(C)C)C(=O)N[C@H]1CC[C@@H]2CN(c3cccc(C(F)(F)F)c3F)C[C@@H]21` [Example 635, N-{(3aR,4S,6aS)-2-[2-fluoro-3-(trifluoromethyl)phenyl]octahydrocyclopenta[c]pyrrol-4-yl}-N^2-methyl-L-leucinamide], the IC50 is 0.92 µM.
On to `Cn1nccc1CN[C@H]1CC[C@@H]2CN(c3cccc(C(F)(F)F)n3)C[C@@H]21` [Example 725, (3aR,4S,6aS)-N-[(1-methyl-1H-pyrazol-5-yl)methyl]-2-[6-(trifluoromethyl)pyridin-2-yl]octahydrocyclopenta[c]pyrrol-4-amine], for which the IC50 is 0.94 µM.
`O=C(N[C@H]1CC[C@@H]2CN(c3ccc(F)c(C(F)(F)F)c3)C[C@@H]21)[C@@H]1C[C@@H](F)CN1` [Example 626, (4R)-4-fluoro-N-{(3aR,4S,6aS)-2-[4-fluoro-3-(trifluoromethyl)phenyl]octahydrocyclopenta[c]pyrrol-4-yl}-L-prolinamide]: the IC50 stood at 4.52 µM.

Still in this test, the particulars now being: IC50 (μM) or percent inhibition (* indicates 3 minute incubation, otherwise 60 minute), IC50; 3 minute pre-incubation (*); IMR32 cells, 80 mM KCl depolarization.
On to `O=C(N[C@@H]1CC[C@H]2CN(Cc3ccccc3)C[C@H]21)C(c1ccccc1)C1CCCCC1` (relative stereo) [Example 4, N-[(3aS*,4R*,6aR*)-2-benzyloctahydrocyclopenta[c]pyrrol-4-yl]-2-cyclohexyl-2-phenylacetamide], for which the IC50 amounted to 3.5 µM.

Still in this test, the particulars now being: read-out: IC50 (μM) or percent inhibition (* indicates 3 minute incubation, otherwise 60 minute); IC50; 60 minute pre-incubation with compound; IMR32 cells, 80 mM KCl depolarization.
For “(3aR,4S,6aS)-N-[(5-fluoro-1-methyl-1H-indol-2-yl)methyl]-2-[6-(trifluoromethyl)pyridin-2-yl]octahydrocyclopenta[c]pyrrol-4-amine [Example 748]”, the IC50 turned out to be 0.81 µM.
The same measure, in the same setting: the same measure for `CC(C)N[C@@H](CC1CCCCC1)C(=O)N[C@H]1CC[C@@H]2CN(S(=O)(=O)c3ccc(C(F)(F)F)cc3)C[C@@H]21` [Example 485, 3-cyclohexyl-N^2-isopropyl-N^1-((3aR,4S,6aS)-2-{[4-(trifluoromethyl)phenyl]sulfonyl}octahydrocyclopenta[c]pyrrol-4-yl)-L-alaninamide]: 1.49 µM; for `O=C(N[C@H]1CC[C@H]2CN(Cc3ccccc3)C[C@H]21)C(C1CCCCC1)C1CCCCC1` [Example 15, N-[(3aS,4S,6aR)-2-benzyloctahydrocyclopenta[c]pyrrol-4-yl]-2,2-dicyclohexylacetamide]: 16.5 µM.
The same measure, in the same setting: the figure for “N^2-isopropyl-4-methyl-N^1-{(3aR,4S,6aS)-2-[2-(methylsulfonyl)pyrimidin-5-yl]octahydrocyclopenta[c]pyrrol-4-yl}-L-leucinamide [Example 493]” is 5.08 µM; for `O=C(N[C@H]1CC[C@H]2CN(Cc3cc(C(F)(F)F)cc(C(F)(F)F)c3)C[C@H]21)C(C1CCCCC1)C1CCCCC1` [Example 59, N-{(3aS,4S,6aR)-2-[3,5-bis(trifluoromethyl)benzyl]octahydrocyclopenta[c]pyrrol-4-yl}-2,2-dicyclohexylacetamide] it is 0.51 µM.
Regarding `CC(C)C[C@@H](N)C(=O)N[C@@H]1CC[C@H]2CN(Cc3cccc(C(F)(F)F)c3)C[C@H]21` (relative stereo) [Example 162, N^1-{(3aS*,4R*,6aR*)-2-[3-(trifluoromethyl)benzyl]octahydrocyclopenta[c]pyrrol-4-yl}-D-leucinamide], the IC50 was determined as 3.94 µM.
The same measure, in the same setting: the same measure for `CC(C)C[C@H](NS(C)(=O)=O)C(=O)N[C@@H]1CC[C@H]2CN(Cc3cccc(C(F)(F)F)c3)C[C@H]21` [Example 170, N^2-(methylsulfonyl)-N^1-{(3aS,4R,6aR)-2-[3-(trifluoromethyl)benzyl]octahydrocyclopenta[c]pyrrol-4-yl}-L-leucinamide]: 4.55 µM.
